Assay results: ChEMBL document CHEMBL5724806, “Unraveling interindividual differences and functional consequences of gut microbial metabolism of immunosuppressants” (2024)

Experiments:
Type in all cases: ADME
[1] = (§1) The drug is tested on Bacteroides vulgatus strain: DSM1447 for biotransformation under anaerobic condition. The drug concentrations were measured over 6 timepoints collected between 0 and 12 hours of incubation by liquid-chromatography-coupled mass spectrometry (LC–MS); parameters: dose 5 uM, timepoint 0, 1.5, 3, 6, 9, 12 hours; details: phocaeicola vulgatus, 5 µM
[2] = The drug is tested on Eubacterium rectale strain: DSM17629 for biotransformation under anaerobic condition. The drug concentrations were measured over 6 timepoints collected between 0 and 12 hours of incubation by liquid-chromatography-coupled mass spectrometry (LC–MS); parameters: dose 5 uM, timepoint 0, 1.5, 3, 6, 9, 12 hours; details: agathobacter rectalis, 5 µM
[3] = as §1, with “the gut metagenome community of T-05 with ENA study accession number: PRJEB31790” for “Bacteroides vulgatus strain: DSM1447”, “7” for “6”; parameters: dose 5 uM, timepoint 0, 0.75, 1.5, 3, 6, 9, 12 hours; details: 5 µM
[4] = The drug is tested on Bacteroides uniformis strain: DSM6597 for biotransformation under anaerobic condition. The drug concentrations were measured over 6 timepoints collected between 0 and 12 hours of incubation by liquid-chromatography-coupled mass spectrometry (LC–MS); parameters: dose 5 uM, timepoint 0, 1.5, 3, 6, 9, 12 hours; details: 5 µM
[5] = The drug is tested on Capnocytophaga ochracea strain: DSM7271 for biotransformation under anaerobic condition. The drug concentrations were measured over 6 timepoints collected between 0 and 12 hours of incubation by liquid-chromatography-coupled mass spectrometry (LC–MS); parameters: dose 5 uM, timepoint 0, 1.5, 3, 6, 9, 12 hours; details: 5 µM
[6] = (§2) The drug is tested on Bifidobacterium longum strain: DSM20088 for biotransformation under microaerobic condition. The drug concentrations were measured over 6 timepoints collected between 0 and 12 hours of incubation by liquid-chromatography-coupled mass spectrometry (LC–MS); parameters: dose 5 uM, timepoint 0, 1.5, 3, 6, 9, 12 hours; details: 5 µM
[7] = as §2, with “the gut metagenome community of A-09 with ENA study accession number: PRJEB31790” for “Bifidobacterium longum strain: DSM20088”, “7” for “6”; parameters: dose 5 uM, timepoint 0, 0.75, 1.5, 3, 6, 9, 12 hours; details: 5 µM
[8] = as §1, with “the gut metagenome community of A-03 with ENA study accession number: PRJEB31790” for “Bacteroides vulgatus strain: DSM1447”, “7” for “6”; parameters: dose 5 uM, timepoint 0, 0.75, 1.5, 3, 6, 9, 12 hours; details: 5 µM
[9] = The drug is tested on Streptococcus salivarius strain: DSM20560 for biotransformation under microaerobic condition. The drug concentrations were measured over 6 timepoints collected between 0 and 12 hours of incubation by liquid-chromatography-coupled mass spectrometry (LC–MS); parameters: dose 5 uM, timepoint 0, 1.5, 3, 6, 9, 12 hours; details: 5 µM
[10] = The drug is tested on Streptococcus mitis strain: DSM12643 for biotransformation under microaerobic condition. The drug concentrations were measured over 6 timepoints collected between 0 and 12 hours of incubation by liquid-chromatography-coupled mass spectrometry (LC–MS); parameters: dose 5 uM, timepoint 0, 1.5, 3, 6, 9, 12 hours; details: 5 µM
[11] = as §1, with “the gut metagenome community of P-04 with ENA study accession number: PRJEB31790” for “Bacteroides vulgatus strain: DSM1447”, “7” for “6”; parameters: dose 5 uM, timepoint 0, 0.75, 1.5, 3, 6, 9, 12 hours; details: 5 µM
[12] = The drug is tested on Lactobacillus ruminis strain: ATCC25644 for biotransformation under anaerobic condition. The drug concentrations were measured over 6 timepoints collected between 0 and 12 hours of incubation by liquid-chromatography-coupled mass spectrometry (LC–MS); parameters: dose 5 uM, timepoint 0, 1.5, 3, 6, 9, 12 hours; details: ligilactobacillus ruminis, 5 µM
[13] = The drug is tested on Streptococcus anginosus strain: DSM20563 for biotransformation under anaerobic condition. The drug concentrations were measured over 6 timepoints collected between 0 and 12 hours of incubation by liquid-chromatography-coupled mass spectrometry (LC–MS); parameters: dose 5 uM, timepoint 0, 1.5, 3, 6, 9, 12 hours; details: 5 µM
[14] = The drug is tested on Lactobacillus paracasei strain: ATCC27092 for biotransformation under anaerobic condition. The drug concentrations were measured over 6 timepoints collected between 0 and 12 hours of incubation by liquid-chromatography-coupled mass spectrometry (LC–MS); parameters: dose 5 uM, timepoint 0, 1.5, 3, 6, 9, 12 hours; details: lacticaseibacillus paracasei, 5 µM
[15] = as §1, with “the gut metagenome community of A-02 with ENA study accession number: PRJEB31790” for “Bacteroides vulgatus strain: DSM1447”, “7” for “6”; parameters: dose 5 uM, timepoint 0, 0.75, 1.5, 3, 6, 9, 12 hours; details: 5 µM
[16] = The drug is tested on Faecalibacterium prausnitzii strain: DSM17677 for biotransformation under anaerobic condition. The drug concentrations were measured over 6 timepoints collected between 0 and 12 hours of incubation by liquid-chromatography-coupled mass spectrometry (LC–MS); parameters: dose 5 uM, timepoint 0, 1.5, 3, 6, 9, 12 hours; details: faecalibacterium duncaniae, 5 µM
[17] = The drug is tested on Bacteroides fragilis strain: DSM2151 for biotransformation under anaerobic condition. The drug concentrations were measured over 6 timepoints collected between 0 and 12 hours of incubation by liquid-chromatography-coupled mass spectrometry (LC–MS); parameters: dose 5 uM, timepoint 0, 1.5, 3, 6, 9, 12 hours; details: 5 µM
[18] = The drug is tested on Streptococcus anginosus strain: DSM20563 for biotransformation under microaerobic condition. The drug concentrations were measured over 6 timepoints collected between 0 and 12 hours of incubation by liquid-chromatography-coupled mass spectrometry (LC–MS); parameters: dose 5 uM, timepoint 0, 1.5, 3, 6, 9, 12 hours; details: 5 µM
[19] = The drug is tested on Bacteroides thetaiotaomicron strain: DSM2079 for biotransformation under anaerobic condition. The drug concentrations were measured over 6 timepoints collected between 0 and 12 hours of incubation by liquid-chromatography-coupled mass spectrometry (LC–MS); parameters: dose 5 uM, timepoint 0, 1.5, 3, 6, 9, 12 hours; details: 5 µM
[20] = The drug is tested on Gemella morbillorum strain: DSM20572 for biotransformation under microaerobic condition. The drug concentrations were measured over 6 timepoints collected between 0 and 12 hours of incubation by liquid-chromatography-coupled mass spectrometry (LC–MS); parameters: dose 5 uM, timepoint 0, 1.5, 3, 6, 9, 12 hours; details: 5 µM
[21] = as §2, with “the gut metagenome community of T-03 with ENA study accession number: PRJEB31790” for “Bifidobacterium longum strain: DSM20088”, “7” for “6”; parameters: dose 5 uM, timepoint 0, 0.75, 1.5, 3, 6, 9, 12 hours; details: 5 µM
[22] = The drug is tested on Lactobacillus reuteri strain: DSM20016 for biotransformation under anaerobic condition. The drug concentrations were measured over 6 timepoints collected between 0 and 12 hours of incubation by liquid-chromatography-coupled mass spectrometry (LC–MS); parameters: dose 5 uM, timepoint 0, 1.5, 3, 6, 9, 12 hours; details: limosilactobacillus reuteri, 5 µM
[23] = The drug is tested on Lactobacillus gasseri strain: DSM20243 for biotransformation under microaerobic condition. The drug concentrations were measured over 6 timepoints collected between 0 and 12 hours of incubation by liquid-chromatography-coupled mass spectrometry (LC–MS); parameters: dose 5 uM, timepoint 0, 1.5, 3, 6, 9, 12 hours; details: 5 µM
[24] = as §2, with “the gut metagenome community of A-01 with ENA study accession number: PRJEB31790” for “Bifidobacterium longum strain: DSM20088”, “7” for “6”; parameters: dose 5 uM, timepoint 0, 0.75, 1.5, 3, 6, 9, 12 hours; details: 5 µM
[25] = The drug is tested on Parabacteroides distasonis strain: DSM20701 for biotransformation under anaerobic condition. The drug concentrations were measured over 6 timepoints collected between 0 and 12 hours of incubation by liquid-chromatography-coupled mass spectrometry (LC–MS); parameters: dose 5 uM, timepoint 0, 1.5, 3, 6, 9, 12 hours; details: 5 µM
[26] = as §2, with “the gut metagenome community of T-02 with ENA study accession number: PRJEB31790” for “Bifidobacterium longum strain: DSM20088”, “7” for “6”; parameters: dose 5 uM, timepoint 0, 0.75, 1.5, 3, 6, 9, 12 hours; details: 5 µM
[27] = as §1, with “the gut metagenome community of A-07 with ENA study accession number: PRJEB31790” for “Bacteroides vulgatus strain: DSM1447”, “7” for “6”; parameters: dose 5 uM, timepoint 0, 0.75, 1.5, 3, 6, 9, 12 hours; details: 5 µM
[28] = The drug is tested on Bacteroides ovatus strain: ATCC 8483 for biotransformation under anaerobic condition. The drug concentrations were measured over 6 timepoints collected between 0 and 12 hours of incubation by liquid-chromatography-coupled mass spectrometry (LC–MS); parameters: dose 5 uM, timepoint 0, 1.5, 3, 6, 9, 12 hours; details: 5 µM
[29] = as §1, with “the gut metagenome community of P-03 with ENA study accession number: PRJEB31790” for “Bacteroides vulgatus strain: DSM1447”, “7” for “6”; parameters: dose 5 uM, timepoint 0, 0.75, 1.5, 3, 6, 9, 12 hours; details: 5 µM
[30] = as §2, with “the gut metagenome community of T-04 with ENA study accession number: PRJEB31790” for “Bifidobacterium longum strain: DSM20088”, “7” for “6”; parameters: dose 5 uM, timepoint 0, 0.75, 1.5, 3, 6, 9, 12 hours; details: 5 µM

Measured: Bacterial Biotransformation

CO[C@H]1C[C@@H]2CC[C@@H](C)[C@@](O)(O2)C(=O)C(=O)N2CCCC[C@H]2C(=O)O[C@H]([C@H](C)C[C@@H]2CC[C@@H](O)[C@H](OC)C2)CC(=O)[C@H](C)/C=C(\C)[C@@H](O)[C@@H](OC)C(=O)[C@H](C)C[C@H](C)/C=C/C=C/C=C/1C [SIROLIMUS]
Compound metabolized: [4] | [5] | [7] | [8] | [11] | [15] | [25] | [26] | [27]
Compound NOT metabolized: [1] | [2] | [3] | [6] | [9] | [10] | [12] | [13] | [14] | [16] | [17] | [18] | [19] | [20] | [21] | [22] | [23] | [24] | [28] | [29] | [30]

C=CC[C@@H]1/C=C(\C)C[C@H](C)C[C@H](OC)[C@H]2O[C@@](O)(C(=O)C(=O)N3CCCC[C@H]3C(=O)O[C@H](/C(C)=C/[C@@H]3CC[C@@H](O)[C@H](OC)C3)[C@H](C)[C@@H](O)CC1=O)[C@H](C)C[C@@H]2OC.O [TACROLIMUS]
Compound NOT metabolized: [1] | [2] | [3] | [5] | [6] | [8] | [9] | [10] | [11] | [12] | [13] | [14] | [15] | [16] | [17] | [18] | [19] | [20] | [21] | [22] | [23] | [24] | [25] | [28] | [29]
Compound metabolized: [4] | [7] | [26] | [27] | [30]
